Test system: cultured chick sensory neurons from dorsal root ganglia
Experiment: Chick dorsal root ganglion cultures and neurite outgrowth
Assay type: cell-based
Conditions: 1 mM, 48 h after treatment (FIGS. 4, 5)
Procedure: Dorsal root ganglia were dissected from chick embryos of ten day gestation. Whole ganglion explants were cultured on thin layer Matrigel-coated 12 well plates with Liebovitz L15 plus high glucose media supplemented with 2 mM glutamine and […], and also containing 10 μM cytosine 9-D arabinofuranoside (Ara C) at 37° C. in an environment containing 5% CO2. Twenty-four hours later, the DRGs were treated with various concentrations of nerve growth factor, immunophilin ligands or combinations of NFG plus drugs. Forty-eight hours after drug treatment, the ganglia were visualized under phase contrast or Hoffman Modulation contrast with a Zeiss Axiovert inverted microscope. Photomicrographs of the explants were made, and neurite outgrowth was quantitated. Neurites longer than the DRG diameter were counted as positive, with total number of neurites quantitated per each experimental condition. Three to four DRGs are cultured per well, and each treatment was performed in duplicate.

Substance | Promotion of neurite outgrowth (neurotrophic effects)
Ac-Pro-Gly-Pro-Phe-NH2 (Ac-PGPF-NH2) | powerful neurotrophic effects
Ac-Pro-Ala-Pro-Ala-NH2 (Ac-PAPA-NH2) | potent neurotrophic effects
